{"source": "paper PMC11772769", "about": "“Selective cargo and membrane recognition by SNX17 regulates its interaction with Retriever” (EMBO Reports, 2024)", "key": {"[1]": {"target": "T1, SNX17FERM-CT (amino acids 109-470) (Homo sapiens, UniProt Q15036)", "T1 construct": "His-Sumo3 (N, cleaved yes); made in house; host or cells: Escherichia coli BL21(DE3)", "T1 sequence (Q15036 109-470)": "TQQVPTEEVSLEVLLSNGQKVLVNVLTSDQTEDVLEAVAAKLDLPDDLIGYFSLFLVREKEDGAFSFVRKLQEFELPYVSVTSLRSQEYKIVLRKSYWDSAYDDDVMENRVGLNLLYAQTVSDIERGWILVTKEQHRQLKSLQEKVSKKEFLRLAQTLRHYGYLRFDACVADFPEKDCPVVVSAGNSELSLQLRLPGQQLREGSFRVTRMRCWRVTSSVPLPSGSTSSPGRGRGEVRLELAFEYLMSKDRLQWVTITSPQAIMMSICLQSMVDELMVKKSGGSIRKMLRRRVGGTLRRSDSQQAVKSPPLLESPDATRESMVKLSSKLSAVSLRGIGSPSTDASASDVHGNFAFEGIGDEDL", "assay": "Fluorescence anisotropy binding of 5-FAM cargo peptides to SNX17FERM-CT", "conditions": "read-out: KD SNX17FERM-CT", "procedure": "(§1) Lyophilized peptides were resuspended in 100 mM Hepes pH 8.0 at 5 mg/ml and further diluted in the assay buffer (50 mM Hepes pH 7.5, 300 mM NaCl, and 1 mM DTT). […] The mixture was incubated at 25 °C for at least 30 min and then transferred to 96 Flat Black plates. Fluorescence anisotropy was measured at 25 °C using Spark 10M Plate Reader (Tecan) with a 485/20 excitation filter and a 535/35 emission filter. The dissociation constants were calculated in GraphPad Prism by nonlinear regression fitting of the experimental data to a one-site total binding model. The final KD measurement is the mean of at least two independent experiments."}, "MBP-SNX17 WT": {"target": "T2, MBP-SNX17 WT (Homo sapiens, UniProt Q15036)", "T2 construct": "M protein marker, R Retriever complex, FL full-length; His (N, cleaved yes); made in house; host or cells: Escherichia coli BL21(DE3)", "T2 sequence (Q15036 1-470)": "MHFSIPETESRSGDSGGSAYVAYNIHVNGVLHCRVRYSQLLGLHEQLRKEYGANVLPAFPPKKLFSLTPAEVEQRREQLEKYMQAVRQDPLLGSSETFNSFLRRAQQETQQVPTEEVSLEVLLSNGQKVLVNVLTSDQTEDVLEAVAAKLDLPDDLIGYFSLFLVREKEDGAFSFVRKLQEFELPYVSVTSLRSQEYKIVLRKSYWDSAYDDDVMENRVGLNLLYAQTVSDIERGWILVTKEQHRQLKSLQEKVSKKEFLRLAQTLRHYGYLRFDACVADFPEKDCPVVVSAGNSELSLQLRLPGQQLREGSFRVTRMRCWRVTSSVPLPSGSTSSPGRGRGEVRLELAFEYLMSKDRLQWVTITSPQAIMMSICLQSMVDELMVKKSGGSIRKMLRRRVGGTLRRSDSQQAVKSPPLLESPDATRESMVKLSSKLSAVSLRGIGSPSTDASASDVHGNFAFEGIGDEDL", "assay": "Fluorescence anisotropy binding of 5-FAM peptides to MBP-SNX17 wild-type", "procedure": "as §1"}, "MBP-SNX17W321A": {"target": "T3, MBP-SNX17W321A (Homo sapiens, UniProt Q15036, W321A)", "T3 construct": "M protein marker, R Retriever complex, FL full-length; His (N, cleaved yes); made in house; host or cells: Escherichia coli BL21(DE3)", "T3 sequence (Q15036 1-470 W321A)": "T2 sequence (Q15036 1-470) with W321A", "assay": "Fluorescence anisotropy binding of 5-FAM peptides to MBP-SNX17 W321A", "procedure": "as §1"}, "MBP-SNX17V380D": {"target": "T4, MBP-SNX17V380D (Homo sapiens, UniProt Q15036, V380D)", "T4 construct": "M protein marker, R Retriever complex, FL full-length; His (N, cleaved yes); made in house; host or cells: Escherichia coli BL21(DE3)", "T4 sequence (Q15036 1-470 V380D)": "T2 sequence (Q15036 1-470) with V380D", "assay": "Fluorescence anisotropy binding of 5-FAM peptides to MBP-SNX17 V380D", "procedure": "as §1"}, "MBP": {"target": "MBP (Escherichia coli, UniProt P0AEX9)", "assay": "Fluorescence anisotropy, MBP negative control", "type": "binding", "procedure": "as §1"}, "MBP-SNX17 L470G": {"target": "T5, MBP-SNX17 L470G (Homo sapiens, UniProt Q15036, L470G)", "T5 construct": "M protein marker, R Retriever complex, FL full-length; His (N, cleaved yes); made in house; host or cells: Escherichia coli BL21(DE3)", "T5 sequence (Q15036 1-470 L470G)": "T2 sequence (Q15036 1-470) with L470G", "assay": "Fluorescence anisotropy binding of 5-FAM cargo peptides to MBP-SNX17 L470G", "procedure": "as §1, with “The peptides used for binding assays were synthesized with an N-terminal 5-Carboxyfluorescein (FAM) and HPLC purified (≥95%) by GenScript. Lyophilized” for “Lyophilized”"}, "VPS35L-VPS29": {"target": "T6, VPS35L-VPS29 (Homo sapiens, UniProt Q7Z3J2+Q9UBQ0)", "T6 construct": "His (N, cleaved yes); made in house; host or cells: High Five insect cells (baculovirus)", "assay": "Fluorescence anisotropy binding of 5-FAM SNX17CT-18 to VPS35L-VPS29", "conditions": "0.1 μM 5-FAM peptide, pH 7.5, 300 mM NaCl, 25 °C, two technical replicates (Fig. 3D)", "procedure": "as §1"}, "VPS26C": {"target": "T7, VPS26C (Homo sapiens, UniProt O14972)", "T7 construct": "His-Sumo3 (N, cleaved yes); made in house; host or cells: Escherichia coli BL21(DE3)", "assay": "Fluorescence anisotropy binding of 5-FAM SNX17CT-18 to VPS26C", "conditions": "0.1 μM 5-FAM peptide, pH 7.5, 300 mM NaCl, 25 °C, two technical replicates (Fig. 3D)", "procedure": "as §1"}, "VPS29": {"target": "T8, VPS29 (Homo sapiens, UniProt Q9UBQ0)", "T8 construct": "GST (N, cleaved yes); made in house; host or cells: Escherichia coli BL21(DE3)", "assay": "Fluorescence anisotropy binding of 5-FAM SNX17CT-18 to VPS29", "conditions": "0.1 μM 5-FAM peptide, pH 7.5, 300 mM NaCl, 25 °C, two technical replicates (Fig. 3D)", "procedure": "as §1"}}, "note": "Positions count from the first letter of the chain named. Read-outs that look alike come from different tables or passages of the source. Where no end group is shown, it is not given here.", "data": [{"molecule": "QQNGYENPTYKFFE [APP 14-mer]", "values": [{"measurement": "Kd", "setting": "[1]", "result": 19.1, "unit": "µM"}]}, {"molecule": "MNVEIGNPTYKMYE [LRP1 14-mer]", "values": [{"measurement": "Kd", "setting": "[1]", "result": 2.23, "unit": "µM"}, {"measurement": "Kd", "setting": "MBP-SNX17 WT", "result": 3, "unit": "µM"}, {"measurement": "Kd", "setting": "MBP-SNX17W321A", "result": "> 32", "unit": "µM"}, {"measurement": "Kd", "setting": "MBP-SNX17W321A; read-out: KD MBP-SNX17W321A, fluorescence anisotropy, 5-FAM peptide, Bmax fixed at 240, replicate Y2 (Fig. 4E source data)", "result": "> 32", "unit": "µM"}, {"measurement": "Kd", "setting": "MBP-SNX17V380D; 0.1 μM 5-FAM peptide, pH 7.5, 300 mM NaCl, 25 °C, one-site total binding, Bmax fixed at 240, three biological replicates (Fig. 4E)", "result": "> 32", "unit": "µM"}, {"measurement": "Kd", "setting": "MBP-SNX17V380D; 5-FAM peptide, Bmax fixed at 240, replicate Y1 (Fig. 4E source data), read-out: KD MBP-SNX17V380D", "result": "> 32", "unit": "µM"}, {"measurement": "Kd", "setting": "MBP-SNX17V380D; 5-FAM peptide, Bmax fixed at 240, replicate Y2 (Fig. 4E source data), read-out: KD MBP-SNX17V380D", "result": "> 32", "unit": "µM"}, {"measurement": "Kd", "setting": "MBP-SNX17V380D; 5-FAM peptide, Bmax fixed at 240, replicate Y3 (Fig. 4E source data), read-out: KD MBP-SNX17V380D", "result": "> 32", "unit": "µM"}, {"measurement": "Kd", "setting": "MBP; 0.1 μM 5-FAM peptide, pH 7.5, 300 mM NaCl, 25 °C (Fig. EV3B), read-out: KD MBP (negative control)", "result": "> 32", "unit": "µM"}, {"measurement": "Kd", "setting": "MBP; 5-FAM peptide, replicate Y1 (Fig. 4E source data), read-out: KD MBP", "result": "> 32", "unit": "µM"}, {"measurement": "Kd", "setting": "MBP; 5-FAM peptide, replicate Y2 (Fig. 4E source data), read-out: KD MBP", "result": "> 32", "unit": "µM"}, {"measurement": "Kd", "setting": "MBP; 5-FAM peptide, replicate Y3 (Fig. 4E source data), read-out: KD MBP", "result": "> 32", "unit": "µM"}, {"measurement": "Kd", "setting": "MBP-SNX17 L470G", "result": "2.8 ± 0.2", "unit": "µM"}]}, {"molecule": "KWDTGENPIYKSAV [ITGB1 P-14-mer]", "values": [{"measurement": "Kd", "setting": "[1]", "result": 72.5, "unit": "µM"}]}, {"molecule": "CC[C@H](C)[C@H](NC(=O)CNC(=O)[C@H](CCC(=O)O)NC(=O)[C@H](Cc1ccccc1)NC(=O)[C@H](C)NC(=O)[C@H](Cc1ccccc1)NC(=O)[C@H](CC(N)=O)NC(=O)CNC(=O)[C@H](Cc1c[nH]cn1)NC(=O)[C@@H](NC(=O)[C@H](CC(=O)O)NC(=O)[C@H](CO)NC(=O)[C@H](C)NC(=O)c1ccc2c(c1)C(=O)OC21c2ccc(O)cc2Oc2cc(O)ccc21)C(C)C)C(=O)NCC(=O)N[C@@H](CC(=O)O)C(=O)N[C@@H](CCC(=O)O)C(=O)N[C@@H](CC(=O)O)C(=O)N[C@@H](CC(C)C)C(=O)O", "note": "[SNX17CT-18]", "values": [{"measurement": "KD MBP-SNX17 WT", "setting": "MBP-SNX17 WT; fluorescence anisotropy, 0.1 μM 5-FAM peptide, pH 7.5, 300 mM NaCl, 25 °C, one-site total binding, Bmax fixed at 240, mean ± SD of three biological replicates (Fig. 4E)", "result": "binds weakly"}, {"measurement": "KD VPS35L-VPS29", "setting": "VPS35L-VPS29", "result": "weak interaction"}, {"measurement": "KD VPS26C", "setting": "VPS26C", "result": "no discernible binding"}, {"measurement": "KD VPS29", "setting": "VPS29", "result": "no discernible binding"}]}]}
